Results: PMC5686105, “The industrial anaerobe Clostridium acetobutylicum uses polyketides to regulate cellular differentiation” (Nature Communications, 2017)

Key:
PKS (ca_c3355) [1] = molecular target: T1, PKS (ca_c3355) (Clostridium acetobutylicum, UniProt Q97DW5); assay: in vitro product assay by LC-MS; type: biochemical; settings: 100 mM phosphate pH 7.0, 2 mM malonyl-CoA, 2 mM NADPH, 8 uM PKS, room temperature, 2 h; KR domain reductant
PKS (ca_c3355) [2] = molecular target: T1, PKS (ca_c3355); assay: in vitro product assay by LC-MS; […] acyl loading by SDS-PAGE autoradiography; type: biochemical; settings: 100 mM phosphate pH 7.0, 2 mM malonyl-CoA, 8 uM PKS, room temperature, 2 h; covalent acyl-S-enzyme intermediate seen with labelled compound (made in situ by MatB, pH 8.0, 25 °C)

T1 sequence (Q97DW5 1-1795): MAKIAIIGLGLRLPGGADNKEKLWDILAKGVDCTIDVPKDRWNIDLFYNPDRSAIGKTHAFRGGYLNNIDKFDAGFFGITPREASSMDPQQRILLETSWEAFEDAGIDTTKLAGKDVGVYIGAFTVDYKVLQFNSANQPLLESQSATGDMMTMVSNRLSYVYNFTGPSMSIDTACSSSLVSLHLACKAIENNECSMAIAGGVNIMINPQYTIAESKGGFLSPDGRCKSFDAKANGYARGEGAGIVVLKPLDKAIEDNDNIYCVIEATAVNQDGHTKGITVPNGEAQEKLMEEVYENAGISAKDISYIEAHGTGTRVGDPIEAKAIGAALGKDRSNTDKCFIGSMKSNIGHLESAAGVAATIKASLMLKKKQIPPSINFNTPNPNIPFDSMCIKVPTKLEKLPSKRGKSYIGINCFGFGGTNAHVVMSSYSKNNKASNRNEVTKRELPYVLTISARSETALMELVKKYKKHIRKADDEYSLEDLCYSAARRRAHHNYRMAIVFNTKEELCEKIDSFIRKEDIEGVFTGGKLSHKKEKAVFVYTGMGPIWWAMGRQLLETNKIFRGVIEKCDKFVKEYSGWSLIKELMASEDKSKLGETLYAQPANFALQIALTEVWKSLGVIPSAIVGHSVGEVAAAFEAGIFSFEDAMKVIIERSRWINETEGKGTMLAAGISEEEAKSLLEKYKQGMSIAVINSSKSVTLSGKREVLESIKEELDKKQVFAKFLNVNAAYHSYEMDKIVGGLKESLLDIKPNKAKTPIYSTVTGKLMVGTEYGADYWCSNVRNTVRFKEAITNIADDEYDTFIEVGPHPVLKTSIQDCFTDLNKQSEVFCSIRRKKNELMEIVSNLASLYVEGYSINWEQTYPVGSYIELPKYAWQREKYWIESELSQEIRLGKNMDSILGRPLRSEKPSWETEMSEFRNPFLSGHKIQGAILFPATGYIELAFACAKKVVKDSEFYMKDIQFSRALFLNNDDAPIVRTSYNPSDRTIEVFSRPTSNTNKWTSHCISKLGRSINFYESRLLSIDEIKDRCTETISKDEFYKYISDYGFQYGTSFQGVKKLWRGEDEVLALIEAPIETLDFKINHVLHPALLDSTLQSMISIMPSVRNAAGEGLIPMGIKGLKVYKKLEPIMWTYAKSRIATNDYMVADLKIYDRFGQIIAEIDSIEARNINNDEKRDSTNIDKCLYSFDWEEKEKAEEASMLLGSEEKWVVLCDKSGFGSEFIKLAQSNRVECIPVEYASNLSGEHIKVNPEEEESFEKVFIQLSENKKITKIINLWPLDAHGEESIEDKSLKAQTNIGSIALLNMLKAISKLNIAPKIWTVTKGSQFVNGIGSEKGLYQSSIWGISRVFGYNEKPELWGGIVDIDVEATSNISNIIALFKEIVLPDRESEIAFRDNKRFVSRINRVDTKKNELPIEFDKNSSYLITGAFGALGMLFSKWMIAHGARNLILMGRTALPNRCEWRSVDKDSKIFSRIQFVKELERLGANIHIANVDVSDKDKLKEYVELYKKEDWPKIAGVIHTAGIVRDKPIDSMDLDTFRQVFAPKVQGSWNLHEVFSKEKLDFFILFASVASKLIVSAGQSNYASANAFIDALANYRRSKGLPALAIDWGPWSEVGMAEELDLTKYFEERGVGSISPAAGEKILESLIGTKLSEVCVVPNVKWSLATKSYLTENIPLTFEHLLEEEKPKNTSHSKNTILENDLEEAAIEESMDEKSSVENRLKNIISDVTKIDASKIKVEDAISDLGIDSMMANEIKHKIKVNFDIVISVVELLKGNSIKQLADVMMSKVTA

NC(=O)C1=CN([C@@H]2O[C@H](COP(=O)(O)OP(=O)(O)OC[C@H]3O[C@@H](n4cnc5c(N)ncnc54)[C@H](OP(=O)(O)O)[C@@H]3O)[C@@H](O)[C@H]2O)C=CC1 [NADPH]
in vitro product assay by LC-MS (PKS (ca_c3355) [1]): Addition of NADPH to this reaction enabled function of the KR domain

CC(C)(COP(=O)(O)OP(=O)(O)OC[C@H]1O[C@@H](n2cnc3c(N)ncnc32)[C@H](O)[C@@H]1OP(=O)(O)O)[C@@H](O)C(=O)NCCC(=O)NCCSC(=O)CC(=O)O [malonyl-CoA]
in vitro product assay by LC-MS; 14C acyl loading by SDS-PAGE autoradiography (PKS (ca_c3355) [2]): in vitro reconstitution of the activity of PKS with malonyl-CoA showed a dominant product
